Experimental data published in ChEMBL document CHEMBL1157034, “Synthesis of 1-benzyl-3-(5-hydroxymethyl-2-furyl)selenolo[3,2-c]pyrazole derivatives as new anticancer agents” (Eur J Med Chem, 2010).

Key:
Assay type in all cases: functional
CCRF-CEM = assay: Antitumor activity against human CCRF-CEM cells after 48 hrs by MTT assay
HCT-116 = assay: Antitumor activity against human HCT116 cells after 48 hrs by MTT assay; settings: HCT-116, 48 h
UACC-257 = assay: Antitumor activity against human UACC257 cells after 48 hrs by MTT assay; settings: UACC-257, 48 h
SNB-75 = assay: Antitumor activity against human SNB75 cells after 48 hrs by MTT assay; settings: SNB-75, 48 h
NCI-H23 = assay: Antitumor activity against human NCI-H23 cells after 48 hrs by MTT assay; settings: NCI-H23, 48 h
OVCAR-8 = assay: Antitumor activity against human OVCAR8 cells after 48 hrs by MTT assay; settings: OVCAR-8, 48 h
Malme-3M = assay: Antitumor activity against human MALME-3M cells after 48 hrs by MTT assay
HL-60(TB) = assay: Antitumor activity against human HL-60(TB) cells after 48 hrs by MTT assay; settings: HL-60, 48 h
RXF 393 = assay: Antitumor activity against human RXF393 cells after 48 hrs by MTT assay; settings: RXF 393, 48 h
SN12C = assay: Antitumor activity against human SN12C cells after 48 hrs by MTT assay
OVCAR-4 = assay: Antitumor activity against human OVCAR4 cells after 48 hrs by MTT assay; settings: OVCAR-4, 48 h
COLO 205 = assay: Antitumor activity against human COLO205 cells after 48 hrs by MTT assay; settings: COLO 205, 48 h
[1] = Antitumor activity against human MCF7/ADR cells after 48 hrs by MTT assay; settings: NCI/ADR-RES
786-0 = assay: Antitumor activity against human 786-0 cells after 48 hrs by MTT assay; settings: 786-0, 48 h
SF-295 = assay: Antitumor activity against human SF295 cells after 48 hrs by MTT assay; settings: SF-295, 48 h
PC-3 = assay: Antitumor activity against human PC3 cells after 48 hrs by MTT assay; settings: PC-3, 48 h
SW-620 = assay: Antitumor activity against human SW620 cells after 48 hrs by MTT assay; settings: SW-620, 48 h
UO-31 = assay: Antitumor activity against human UO31 cells after 48 hrs by MTT assay; settings: UO-31, 48 h
SK-MEL-5 = assay: Antitumor activity against human SK-MEL-5 cells after 48 hrs by MTT assay; settings: SK-MEL-5, 48 h
T47D = assay: Antitumor activity against human T47D cells after 48 hrs by MTT assay
SK-MEL-2 = assay: Antitumor activity against human SK-MEL-2 cells after 48 hrs by MTT assay; settings: SK-MEL-2, 48 h
BT-549 = assay: Antitumor activity against human BT549 cells after 48 hrs by MTT assay; settings: BT-549, 48 h
SK-OV-3 = assay: Antitumor activity against human SKOV3 cells after 48 hrs by MTT assay; settings: SK-OV-3, 48 h
UACC-62 = assay: Antitumor activity against human UACC62 cells after 48 hrs by MTT assay; settings: UACC-62, 48 h
SR = assay: Antitumor activity against human SR cells after 48 hrs by MTT assay
TK-10 = assay: Antitumor activity against human TK10 cells after 48 hrs by MTT assay; settings: TK-10, 48 h
HOP-92 = assay: Antitumor activity against human HOP92 cells after 48 hrs by MTT assay; settings: HOP-92, 48 h
MCF7 = assay: Antitumor activity against human MCF7 cells after 48 hrs by MTT assay; settings: MCF7, 48 h
MDA-MB-435 = assay: Antitumor activity against human MDA-MB-435 cells after 48 hrs by MTT assay; settings: MDA-MB-435, 48 h
[2] = Antitumor activity against human Hs 578T cells after 48 hrs by MTT assay
DU-145 = assay: Antitumor activity against human DU145 cells after 48 hrs by MTT assay; settings: DU-145, 48 h
NCI-H460 = assay: Antitumor activity against human NCI-H460 cells after 48 hrs by MTT assay; settings: NCI-H460, 48 h
[3] = read-out: pLC50 (the source's name) (converted)

Molecule `OCc1ccc(-c2nn(Cc3ccccc3)c3cc[se]c23)o1` has a GI50 (CCRF-CEM) of 24.5 µM, a CC50 (CCRF-CEM; [3]) of over 100 µM and a TGI (CCRF-CEM; read-out: pTGI) of over 100 µM. The GI50 (HCT-116) was 18.2 µM, the CC50 (HCT-116; [3]) was over 100 µM and the TGI (HCT-116; read-out: pTGI) was over 100 µM. The GI50 (UACC-257) was 18.2 µM, the CC50 (UACC-257; [3]) was over 97.7 µM and the TGI (UACC-257; read-out: pTGI (converted)) was 41.7 µM. The GI50 (SNB-75) was 22.4 µM, the CC50 (SNB-75; [3]) was over 100 µM and the TGI (SNB-75; read-out: pTGI (converted)) was 100 µM. It also gave a GI50 (NCI-H23) of 42.7 µM, a CC50 (NCI-H23; [3]) of over 100 µM and a TGI (NCI-H23; read-out: pTGI) of over 100 µM. It also gave a GI50 (OVCAR-8; read-out: pGI50 (converted)) of 55 µM, a CC50 (OVCAR-8; [3]) of over 100 µM and a TGI (OVCAR-8; read-out: pTGI) of over 100 µM. It also gave a GI50 (Malme-3M) of 25.7 µM, a CC50 (Malme-3M; [3]) of over 100 µM and a TGI (Malme-3M; read-out: pTGI) of over 100 µM. For the same molecule, the GI50 (HL-60(TB)) was 19.5 µM, the CC50 (HL-60(TB); [3]) was over 100 µM and the TGI (HL-60(TB); read-out: pTGI (converted)) was 49 µM. It also gave a GI50 (RXF 393; read-out: pGI50 (converted)) of 11.5 µM, a CC50 (RXF 393; [3]) of over 100 µM and a TGI (RXF 393; read-out: pTGI) of 51.3 µM. It also gave a GI50 (SN12C; read-out: pGI50 (converted)) of 43.6 µM, a CC50 (SN12C; [3]) of over 100 µM and a TGI (SN12C; read-out: pTGI) of over 100 µM. The GI50 (OVCAR-4) was 26.3 µM, the CC50 (OVCAR-4; [3]) was over 100 µM and the TGI (OVCAR-4; read-out: pTGI) was over 100 µM. It also gave a GI50 (COLO 205) of 29.5 µM, a CC50 (COLO 205; [3]) of over 100 µM and a TGI (COLO 205; read-out: pTGI) of over 100 µM. For the same molecule, the CC50 [1, 3] was over 100 µM, the TGI ([1]; read-out: pTGI) was over 100 µM and the GI50 (786-0; read-out: pGI50 (converted)) was 33.1 µM. For the same molecule, the CC50 (786-0; [3]) was over 100 µM, the TGI (786-0; read-out: pTGI) was over 100 µM and the GI50 (SF-295) was 19.1 µM. For the same molecule, the CC50 (SF-295; [3]) was over 100 µM, the TGI (SF-295; read-out: pTGI (converted)) was 63.1 µM and the GI50 (PC-3; read-out: pGI50 (converted)) was 27.5 µM. The CC50 (PC-3; [3]) was over 100 µM, the TGI (PC-3; read-out: pTGI) was over 100 µM and the GI50 (SW-620) was 35.5 µM. It also gave a CC50 (SW-620; [3]) of over 100 µM, a TGI (SW-620; read-out: pTGI) of over 100 µM and a GI50 (UO-31; read-out: pGI50 (converted)) of 41.7 µM. It also gave a CC50 (UO-31; [3]) of over 100 µM, a TGI (UO-31; read-out: pTGI) of over 100 µM and a GI50 (SK-MEL-5) of 31.6 µM. The CC50 (SK-MEL-5; [3]) was over 100 µM, the TGI (SK-MEL-5; read-out: pTGI (converted)) was 89.1 µM and the GI50 (T47D) was 21.4 µM. The CC50 (T47D; [3]) was over 100 µM, the TGI (T47D; read-out: pTGI (converted)) was 89.1 µM and the GI50 (SK-MEL-2) was 35.5 µM. For the same molecule, the CC50 (SK-MEL-2; [3]) was over 100 µM, the TGI (SK-MEL-2; read-out: pTGI) was over 100 µM and the GI50 (BT-549) was 25.1 µM. It also gave a CC50 (BT-549; [3]) of over 100 µM, a TGI (BT-549; read-out: pTGI (converted)) of 95.5 µM and a GI50 (SK-OV-3; read-out: pGI50 (converted)) of 46.8 µM. It also gave a CC50 (SK-OV-3; [3]) of over 100 µM, a TGI (SK-OV-3; read-out: pTGI) of over 100 µM and a GI50 (UACC-62) of 2.19 µM. It also gave a CC50 (UACC-62; [3]) of over 100 µM, a TGI (UACC-62; read-out: pTGI (converted)) of 55 µM and a GI50 (SR) of 21.9 µM. The CC50 (SR; [3]) was over 100 µM, the TGI (SR; read-out: pTGI (converted)) was 63.1 µM and the GI50 (TK-10; read-out: pGI50 (converted)) was 1.7 µM. For the same molecule, the CC50 (TK-10; [3]) was over 100 µM, the TGI (TK-10; read-out: pTGI) was over 100 µM and the GI50 (HOP-92) was 18.2 µM. For the same molecule, the CC50 (HOP-92; [3]) was over 100 µM, the TGI (HOP-92; read-out: pTGI (converted)) was 79.4 µM and the GI50 (MCF7; read-out: pGI50 (converted)) was 11.2 µM. For the same molecule, the CC50 (MCF7; [3]) was over 100 µM, the TGI (MCF7; read-out: pTGI) was over 100 µM and the GI50 (MDA-MB-435) was 23.4 µM. For the same molecule, the CC50 (MDA-MB-435; [3]) was over 100 µM, the TGI (MDA-MB-435; read-out: pTGI (converted)) was 75.9 µM and the GI50 [2] was 20 µM. It also gave a CC50 [2, 3] of over 100 µM, a TGI ([2]; read-out: pTGI (converted)) of 74.1 µM and a GI50 (DU-145; read-out: pGI50 (converted)) of 45.7 µM. For the same molecule, the CC50 (DU-145; [3]) was over 100 µM, the TGI (DU-145; read-out: pTGI) was over 100 µM and the GI50 (NCI-H460) was 28.2 µM. The CC50 (NCI-H460; [3]) was over 100 µM and the TGI (NCI-H460; read-out: pTGI) was over 100 µM.
